Measured values from ChEMBL document CHEMBL1141361, “Niphatoxin C, a cytotoxic tripyridine alkaloid from Callyspongia sp” (J Nat Prod, 2007).
pIC50: −log10 of the molar value.

Tests used:
THP-1 [1] = test: Cytotoxicity against human THP1 cells after 21 hrs; type: functional, cell-based; conditions: THP-1, 21 h
THP-1 [2] = test: Cytotoxicity against human THP1 cells at 30 uM; type: functional
[3] = molecular target: T1, P2X purinoceptor 7 (Homo sapiens) (UniProt Q99572); test: Antagonist activity at P2X7 receptor expressed in human THP1 cells assessed as reduction of benzoylbenzoyl adenosine triphosphate-induced pore formation at 10 uM relative to control; type: functional, cell-based; set-up: scale not given: the % may be the effect or the level left; conditions: THP-1
T1 sequence (whole entry): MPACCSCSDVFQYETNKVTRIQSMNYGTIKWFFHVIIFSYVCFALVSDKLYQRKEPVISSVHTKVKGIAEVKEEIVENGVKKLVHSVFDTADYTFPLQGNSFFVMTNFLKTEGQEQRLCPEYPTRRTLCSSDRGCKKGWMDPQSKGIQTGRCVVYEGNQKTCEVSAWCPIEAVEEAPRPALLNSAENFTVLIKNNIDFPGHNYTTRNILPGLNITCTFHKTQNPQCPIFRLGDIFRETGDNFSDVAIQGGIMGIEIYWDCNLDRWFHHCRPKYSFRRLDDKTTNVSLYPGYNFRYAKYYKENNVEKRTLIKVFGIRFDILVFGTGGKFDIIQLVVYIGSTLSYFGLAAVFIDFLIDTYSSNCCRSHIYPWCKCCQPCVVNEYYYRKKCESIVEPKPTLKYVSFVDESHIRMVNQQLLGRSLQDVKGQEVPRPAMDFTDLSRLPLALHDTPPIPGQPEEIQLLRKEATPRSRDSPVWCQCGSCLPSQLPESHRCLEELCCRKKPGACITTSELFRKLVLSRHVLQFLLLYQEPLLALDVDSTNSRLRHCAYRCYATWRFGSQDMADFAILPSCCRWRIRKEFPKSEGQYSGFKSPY

THP-1 [4] = test: Increase in hemolysin-induced pore formation in human THP1 cells at 100 uM relative to control; type: functional
THP-1 [5] = test: Increase in hemolysin-induced pore formation in human THP1 cells at 10 uM relative to control; type: functional
THP-1 [6] = test: Cytotoxicity against human THP1 cells at 100 uM; type: functional

SMILES: C(=C/CCCC[n+]1cccc(C/C=C\CCCCCCc2cccnc2)c1)/CCCCCCc1cccnc1 [NIPHATOXIN C]
- pIC50 (THP-1 [1]): 4.94
- Activity (THP-1 [2]): 0%
- Activity [3]: 41%
- Activity (THP-1 [4]): 185%
- Activity (THP-1 [5]): 101%
- Activity (THP-1 [6]): 99%
